Test results: BindingDB's records for PubMed 35063731 (Chinese Academy of Sciences, 2022)
pIC50: −log10 of the molar value.

Legend:
[1] = biological target: T1, Maltase-glucoamylase (Homo sapiens, UniProt O43451); assay: Inhibition of alpha-glucosidase (unknown origin)
[2] = biological target: T1, Maltase-glucoamylase; assay: Inhibition of alpha-Glucosidase (unknown origin) using pNPG as substrate incubated for 20 mins by micro plate reader analysis
[3] = Inhibition of influenza A virus Neuraminidase using 2-(4-methylumbelliferyl)-a-D-acetylneuraminic acid as substrate incubated for 30 mins by fluorescence based analysis

T1 sequence (O43451 whole entry): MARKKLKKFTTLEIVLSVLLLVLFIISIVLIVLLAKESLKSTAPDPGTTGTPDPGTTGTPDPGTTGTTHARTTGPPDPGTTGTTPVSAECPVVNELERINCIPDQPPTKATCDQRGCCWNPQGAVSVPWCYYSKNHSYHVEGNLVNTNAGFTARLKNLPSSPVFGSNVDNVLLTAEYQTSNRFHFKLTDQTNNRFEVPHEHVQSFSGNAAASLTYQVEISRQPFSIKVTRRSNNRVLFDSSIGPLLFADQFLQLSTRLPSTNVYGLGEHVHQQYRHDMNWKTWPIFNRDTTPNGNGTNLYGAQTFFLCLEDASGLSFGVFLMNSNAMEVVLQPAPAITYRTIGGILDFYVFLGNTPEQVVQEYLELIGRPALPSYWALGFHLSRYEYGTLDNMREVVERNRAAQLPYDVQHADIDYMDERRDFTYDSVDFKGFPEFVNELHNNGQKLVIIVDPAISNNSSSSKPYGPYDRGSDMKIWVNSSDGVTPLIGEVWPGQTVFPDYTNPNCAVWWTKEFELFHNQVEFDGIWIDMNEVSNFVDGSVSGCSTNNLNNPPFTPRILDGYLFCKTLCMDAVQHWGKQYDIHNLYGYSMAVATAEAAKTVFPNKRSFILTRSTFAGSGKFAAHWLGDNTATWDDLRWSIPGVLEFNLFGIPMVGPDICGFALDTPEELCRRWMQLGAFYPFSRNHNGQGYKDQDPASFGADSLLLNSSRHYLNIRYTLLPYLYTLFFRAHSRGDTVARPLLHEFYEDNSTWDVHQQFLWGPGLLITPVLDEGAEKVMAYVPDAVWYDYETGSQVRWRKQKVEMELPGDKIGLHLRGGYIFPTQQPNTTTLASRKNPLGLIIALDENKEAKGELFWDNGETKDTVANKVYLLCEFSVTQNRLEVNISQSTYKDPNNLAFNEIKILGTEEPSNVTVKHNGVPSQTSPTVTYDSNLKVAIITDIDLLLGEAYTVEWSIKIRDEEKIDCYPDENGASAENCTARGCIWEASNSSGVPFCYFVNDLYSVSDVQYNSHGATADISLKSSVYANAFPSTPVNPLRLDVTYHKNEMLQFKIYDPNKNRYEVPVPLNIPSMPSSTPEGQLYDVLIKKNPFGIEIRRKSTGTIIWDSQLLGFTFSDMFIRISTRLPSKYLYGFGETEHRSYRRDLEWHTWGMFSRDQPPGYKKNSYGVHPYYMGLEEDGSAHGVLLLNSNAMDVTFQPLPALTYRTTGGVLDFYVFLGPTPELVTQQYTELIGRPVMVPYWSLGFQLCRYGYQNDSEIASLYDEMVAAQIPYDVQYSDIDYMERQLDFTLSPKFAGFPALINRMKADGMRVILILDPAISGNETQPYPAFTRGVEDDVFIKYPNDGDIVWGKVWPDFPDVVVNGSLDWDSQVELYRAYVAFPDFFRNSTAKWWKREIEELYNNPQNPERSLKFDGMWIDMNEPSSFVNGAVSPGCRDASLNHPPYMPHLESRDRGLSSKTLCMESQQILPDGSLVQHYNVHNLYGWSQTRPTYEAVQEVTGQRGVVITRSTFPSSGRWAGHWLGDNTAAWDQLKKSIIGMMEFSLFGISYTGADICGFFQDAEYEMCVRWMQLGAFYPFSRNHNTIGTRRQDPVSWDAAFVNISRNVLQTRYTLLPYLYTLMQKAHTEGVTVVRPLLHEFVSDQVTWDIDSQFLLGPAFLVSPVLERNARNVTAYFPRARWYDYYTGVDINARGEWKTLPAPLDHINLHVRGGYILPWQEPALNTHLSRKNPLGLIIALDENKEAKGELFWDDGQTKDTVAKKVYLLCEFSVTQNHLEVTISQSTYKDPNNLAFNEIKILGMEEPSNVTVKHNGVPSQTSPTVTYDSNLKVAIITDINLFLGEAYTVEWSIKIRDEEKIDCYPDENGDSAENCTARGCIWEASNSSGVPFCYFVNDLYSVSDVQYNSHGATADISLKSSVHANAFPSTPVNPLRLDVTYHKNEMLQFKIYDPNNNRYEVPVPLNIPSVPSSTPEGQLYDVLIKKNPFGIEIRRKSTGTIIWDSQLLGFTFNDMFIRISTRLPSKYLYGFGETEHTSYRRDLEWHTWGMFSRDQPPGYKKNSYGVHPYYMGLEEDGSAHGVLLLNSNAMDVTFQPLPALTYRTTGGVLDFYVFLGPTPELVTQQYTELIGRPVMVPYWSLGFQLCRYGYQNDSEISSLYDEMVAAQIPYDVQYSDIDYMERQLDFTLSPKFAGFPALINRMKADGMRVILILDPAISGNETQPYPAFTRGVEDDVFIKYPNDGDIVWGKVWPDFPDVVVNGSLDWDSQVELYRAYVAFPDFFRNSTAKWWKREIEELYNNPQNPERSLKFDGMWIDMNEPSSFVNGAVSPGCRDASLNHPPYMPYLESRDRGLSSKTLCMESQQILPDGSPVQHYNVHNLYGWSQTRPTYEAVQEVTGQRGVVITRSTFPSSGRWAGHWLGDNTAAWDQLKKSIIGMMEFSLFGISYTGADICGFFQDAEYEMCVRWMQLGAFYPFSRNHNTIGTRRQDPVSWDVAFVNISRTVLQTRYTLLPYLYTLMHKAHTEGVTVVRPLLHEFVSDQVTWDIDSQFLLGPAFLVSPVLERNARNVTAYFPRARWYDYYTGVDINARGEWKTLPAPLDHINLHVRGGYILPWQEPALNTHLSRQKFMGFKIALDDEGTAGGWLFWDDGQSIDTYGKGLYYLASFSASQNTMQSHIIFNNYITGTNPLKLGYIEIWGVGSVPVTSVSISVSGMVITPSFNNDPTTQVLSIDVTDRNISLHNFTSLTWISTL

For `CC(C)=CCc1cc(C[C@@]2(C(=O)O)OC(=O)C(OC(C)(C)[C@@H](O)Cc3cc(C[C@@]4(C(=O)O)OC(=O)C(O)=C4c4ccc(O)cc4)ccc3O)=C2c2ccc(O)cc2)ccc1O`, the pIC50 [1] was 4.98.
With `COc1cc2c(c(O)c1CO)C(=O)OC[C@@H]2O` the pIC50 [2] was 2.85.
`COC(=O)[C@@]1(C(=O)C(C)=O)C(C)=C(C)C=C2[C@]3(C=O)CC[C@H](OC(C)=O)C(C)(C)[C@H]3CC[C@@]21C` gave a pIC50 [3] of 8.09.
